Like-named read-outs stand apart in the source and are kept apart here.
Experiments:
[1] = tested on: ZIKV human strain PRVABC59; test: Plaque assay, inhibition of ZIKV infection (strain PRVABC59); assay type: cell-based; conditions: Zika virus, Vero C1008; plaque assay, Vero E6 cells, human strain; read-out: IC50 PRVABC59
Description: (§1) After removal of the unbound compounds by centrifugation (after addition of 3% PEG-6000), ZIKV was incubated with Vero E6 cells in 24-well plates at 37°C for 1 h. The cells were then washed with PBS, overlaid with DMEM containing 1% carboxymethyl cellulose and 2% FBS, and cultured at 37°C for 4–5 days, followed by being stained with 0.5% crystal violet. […] Plaques in each well were calculated, and IC50 of compounds for each compound was calculated using the CalcuSyn computer program.

[2] = tested on: ZIKV rhesus macaque strain MR 766; test: Plaque assay, inhibition of ZIKV infection (strain MR 766); assay type: cell-based; conditions: Zika virus, Vero C1008; plaque assay, Vero E6 cells, rhesus strain; read-out: IC50 MR 766
Description: as §1

[3] = tested on: DENV-3-V1043; test: Plaque assay, inhibition of DENV-3 infection in LLC-MK2 cells; assay type: cell-based; conditions: Dengue virus, DENV3
[4] = tested on: ZIKV human strain FLR; test: Plaque assay, inhibition of ZIKV infection (strain FLR); assay type: cell-based; conditions: Zika virus, Vero C1008; plaque assay, Vero E6 cells, human strain; read-out: IC50 FLR
Description: as §1

[5] = tested on: DENV-4-PR-06-65-740; test: Plaque assay, inhibition of DENV-4 infection in LLC-MK2 cells; assay type: cell-based; conditions: Dengue virus, DENV4
[6] = tested on: ZIKV human strain PAN2015; test: Plaque assay, inhibition of ZIKV infection (strain PAN2015); assay type: cell-based; conditions: Zika virus, Vero C1008, Vero E6 cells
Description: as §1

[7] = tested on: 8 human ZIKV strains (PAN2016, R116265, PAN2015, FLR, R103451, PRVABC59, PLCal_ZV, IbH 30656); test: microbe, parasite or virus in culture; assay type: cell-based; conditions: Zika virus, read-out: Average IC50 (human strains)
Description: as §1

[8] = target: T1, ZIKV full-length envelope (E) protein (Zika virus, UniProt Q32ZE1); test: ELISA binding to ZIKV full-length E protein
T1 construct: ZIKV full-length E (Aviva Systems Biology, San Diego, CA, USA); purchased Aviva Systems Biology
Description: Briefly, ELISA plates were coated with each protein (1 μg/ml) at 4°C overnight and were then incubated with blocking buffer containing 2% fat-free milk in PBST (0.05% Tween-20) at 37°C for 2 h. The above compounds, or DMSO control, at serial dilutions were added to the plates and incubated at 37°C for 2 h. After three washes using PBST, the plates were incubated at 37°C for 2 h with ZIKV EDIII-specific human mAb ZKA64-LALA (0.5 μg/ml) (for binding to ZIKV full-length E or EDIII protein), or ZIKV NS2B-NS3-specific mouse sera (for binding to NS2B-NS3 protein). After further washes, the plates were incubated with horseradish peroxidase (HRP)-conjugated anti-human IgG-Fab (1:3,000, Abcam, Cambridge, MS, USA) or anti-mouse IgG (1:3,000, Sigma) antibody at 37°C for 1 h. The plates were incubated with substrate TMB (3,3′,5,5′-tetramethylbenzidine) for 1 min, and the reaction was stopped by addition of 1 N H2SO4. Absorbance at 450 nm (A450 values) was measured by an ELISA microplate reader. Percent binding (% binding) to the E, EDIII, or NS2B-NS3 protein was calculated in the presence or absence of serially diluted compounds using the formula ((1-(E/EDIII/NS2B-NS3-compound)/(E/EDIII/NS2B-NS3))×100), based on which EC50 was calculated using the CalcuSyn program.

[9] = tested on: ZIKV human strain PAN2016 (2016/Panama); test: Plaque assay, inhibition of ZIKV infection (strain PAN2016)
Description: as §1

[10] = tested on: ZIKV (PAN2016); test: Time-of-addition experiment in Vero E6 cells; assay type: cell-based, Zika virus; conditions: for inhibition at 15 µM: Zika virus, Vero C1008, Vero E6 cells
Description: Briefly, Vero E6 cells (10^5/well) and/or ZIKV were incubated in 24-well plates with or without the above compounds (15 μM) for 1 h before, 1 h after, or the same time during infection of ZIKV (the detailed procedures were described below and published previously). The following six conditions of ZIKV infection were tested: (1) condition 1: pretreatment of the virus. […] The plaque assay was performed following the standard protocol described above and before. (2) condition 2: pretreatment of cells. […] The unbound ZIKV was removed, and the cells were cultured and plaques calculated as in condition 1. (3) Condition 3: attachment. […] After removal of the unbound ZIKV and compounds, the cells were cultured and plaques calculated as in condition 1. (4) Condition 4: cotreatment. […] After removal of the unbound virus and compounds, the cells were cultured and plaques were calculated as in condition 1. (5) condition 5: fusion. Cells were incubated with ZIKV (PAN2016, 300 PFU) at 4°C for 1 h for ZIKV attachment. […] The unbound compounds were removed, and the cells were cultured and plaques calculated as in condition 1. (6) Condition 6: post-entry. Cells were incubated with ZIKV (PAN2016, 100 PFU) at 37°C for 1 h for ZIKV entry. […] The unbound compounds were then removed, and the cells were cultured and calculated for plaques as in condition 1. Since variant conditions may affect the formation of plaques, the use of different PFUs can ensure that the number of plaques in the DMSO control group is about 100/well for each condition.

[11] = tested on: DENV-2-V594; test: Plaque assay, inhibition of DENV-2 infection in LLC-MK2 cells; assay type: cell-based; conditions: Dengue virus, DENV2
[12] = tested on: DENV-1-V1792; test: Plaque assay, inhibition of DENV-1 infection in LLC-MK2 cells; assay type: cell-based; conditions: Dengue virus, DENV1
[13] = tested on: Vero E6 cells; test: Cytotoxicity, Cell Counting Kit-8, Vero E6 cells; assay type: cell-based; conditions: African green monkey, 3 days
Description: (§2) Briefly, compounds at 2-fold serial dilutions were added to the respective cells (2.0×10^4/well) pre-seeded in 96-well plates. The cells were cultured at 37°C in the presence of 5% CO2 for 3 days, […] incubated with CCK8 solution, followed by measurement of absorbance at 450 nm (A450 value), using a microplate reader (Infinite F200PRO, Tecan, Morrisville, NC, USA). CC50 of compounds was calculated using the CalcuSyn program.

[14] = Cytotoxicity, Cell Counting Kit-8, Vero E6 cells; assay type: cell-based; conditions: African green monkey, CC50 Vero E6
Description: as §2

T1 sequence (Q32ZE1 291-790): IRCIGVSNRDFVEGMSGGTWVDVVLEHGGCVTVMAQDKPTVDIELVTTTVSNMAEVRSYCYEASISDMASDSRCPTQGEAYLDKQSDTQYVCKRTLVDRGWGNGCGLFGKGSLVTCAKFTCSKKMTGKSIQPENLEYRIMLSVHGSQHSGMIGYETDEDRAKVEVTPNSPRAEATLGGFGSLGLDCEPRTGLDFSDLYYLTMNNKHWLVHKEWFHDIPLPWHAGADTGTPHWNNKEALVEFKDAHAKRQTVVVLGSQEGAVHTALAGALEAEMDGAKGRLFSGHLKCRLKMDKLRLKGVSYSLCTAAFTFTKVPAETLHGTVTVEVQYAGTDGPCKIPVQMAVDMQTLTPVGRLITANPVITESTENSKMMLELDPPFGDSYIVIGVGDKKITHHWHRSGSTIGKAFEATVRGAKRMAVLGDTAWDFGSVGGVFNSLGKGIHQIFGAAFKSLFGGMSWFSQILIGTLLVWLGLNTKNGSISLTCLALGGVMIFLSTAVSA

Cc1cc2c(C(C)C)c(O)c(O)c(/C=N/n3c(=O)[nH][nH]c3=O)c2c(O)c1-c1c(C)cc2c(C(C)C)c(O)c(O)c(/C=N/n3c(=O)[nH][nH]c3=O)c2c1O [ST087010]
IC50 [1]: 2400 nM | IC50 [2]: 3.5 µM | IC50 [3]: 3.33 ± 0.08 µM | IC50 [4]: 2800 nM | IC50 [5]: 2980 ± 180 nM | IC50 [6]: 3.5 µM | IC50 [7]: 2900 nM | EC50 [8]: 6.47 µM | SI (CC50/IC50) ([9]; CC50 Vero E6 / IC50 ZIKV PAN2016): 15.63 | IC50 ([9]; Zika virus, Vero C1008, in Homo sapiens, read-out: IC50 against infection of ZIKV PAN2016, plaque assay, Vero E6 cells): 3.2 µM | IC50 ([9]; read-out: IC50 against infection of ZIKV PAN2016, plaque assay, Vero E6 cells): 3.17 ± 0.18 µM | Inhibition of ZIKV infection, condition 2: pretreatment of cells ([10]; 15 μM, Vero E6 cells): no, or little | Inhibition of ZIKV infection, condition 4: cotreatment ([10]; 15 μM, Vero E6 cells): no, or little | Inhibition of ZIKV infection, condition 5: fusion ([10]; 15 μM, Vero E6 cells): no, or little | Inhibition of ZIKV infection, condition 1: pretreatment of the virus ([10]; 15 μM, virus incubated with compound at 37°C for 1 h before Vero E6 cells): almost completely inhibited | inhibition at 15 µM ([10]; 4°C 1 h, read-out: Inhibition of ZIKV infection, condition 3: attachment): < 40% | inhibition at 15 µM ([10]; read-out: Inhibition of ZIKV infection, condition 6: post-entry): < 20% | IC50 [11]: 3.19 ± 0.01 µM | IC50 [12]: 3.01 ± 0.11 µM | CC50 [13]: 49.6 ± 1.83 µM | CC50 at 3 days [14]: 49.6 µM

Source: article PMC9202104 (BMC Biology, 2022)
